Results reported in US20090105305A1, “Therapeutic Agents - 550” (AstraZeneca AB, priority 2006, published 2009).

Biological target: T1, human Fatty Acid Synthase (Homo sapiens, UniProt P49327)
T1 construct: made in house
Assay: Human FAS enzyme assay (decrease in NADPH fluorescence)
Type: biochemical
Settings: % inhibition at a concentration of 100 micromolar
Outline: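 In-house human FAS (0.4 μg) was preincubated 15 min at RT with compound and NADPH (added at 166.6 μM) in 0.1 M Tris pH 7.5, 1 mM glutathione, 0.05% BSA. Malonyl-/acetyl-CoA (500/150 μM in substrate mix) was then added for 60 min. Readout was NADPH fluorescence loss (ex 340/em 460) over a time-zero read, with IC50 from a sigmoid fit.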

T1 sequence (P49327 whole entry): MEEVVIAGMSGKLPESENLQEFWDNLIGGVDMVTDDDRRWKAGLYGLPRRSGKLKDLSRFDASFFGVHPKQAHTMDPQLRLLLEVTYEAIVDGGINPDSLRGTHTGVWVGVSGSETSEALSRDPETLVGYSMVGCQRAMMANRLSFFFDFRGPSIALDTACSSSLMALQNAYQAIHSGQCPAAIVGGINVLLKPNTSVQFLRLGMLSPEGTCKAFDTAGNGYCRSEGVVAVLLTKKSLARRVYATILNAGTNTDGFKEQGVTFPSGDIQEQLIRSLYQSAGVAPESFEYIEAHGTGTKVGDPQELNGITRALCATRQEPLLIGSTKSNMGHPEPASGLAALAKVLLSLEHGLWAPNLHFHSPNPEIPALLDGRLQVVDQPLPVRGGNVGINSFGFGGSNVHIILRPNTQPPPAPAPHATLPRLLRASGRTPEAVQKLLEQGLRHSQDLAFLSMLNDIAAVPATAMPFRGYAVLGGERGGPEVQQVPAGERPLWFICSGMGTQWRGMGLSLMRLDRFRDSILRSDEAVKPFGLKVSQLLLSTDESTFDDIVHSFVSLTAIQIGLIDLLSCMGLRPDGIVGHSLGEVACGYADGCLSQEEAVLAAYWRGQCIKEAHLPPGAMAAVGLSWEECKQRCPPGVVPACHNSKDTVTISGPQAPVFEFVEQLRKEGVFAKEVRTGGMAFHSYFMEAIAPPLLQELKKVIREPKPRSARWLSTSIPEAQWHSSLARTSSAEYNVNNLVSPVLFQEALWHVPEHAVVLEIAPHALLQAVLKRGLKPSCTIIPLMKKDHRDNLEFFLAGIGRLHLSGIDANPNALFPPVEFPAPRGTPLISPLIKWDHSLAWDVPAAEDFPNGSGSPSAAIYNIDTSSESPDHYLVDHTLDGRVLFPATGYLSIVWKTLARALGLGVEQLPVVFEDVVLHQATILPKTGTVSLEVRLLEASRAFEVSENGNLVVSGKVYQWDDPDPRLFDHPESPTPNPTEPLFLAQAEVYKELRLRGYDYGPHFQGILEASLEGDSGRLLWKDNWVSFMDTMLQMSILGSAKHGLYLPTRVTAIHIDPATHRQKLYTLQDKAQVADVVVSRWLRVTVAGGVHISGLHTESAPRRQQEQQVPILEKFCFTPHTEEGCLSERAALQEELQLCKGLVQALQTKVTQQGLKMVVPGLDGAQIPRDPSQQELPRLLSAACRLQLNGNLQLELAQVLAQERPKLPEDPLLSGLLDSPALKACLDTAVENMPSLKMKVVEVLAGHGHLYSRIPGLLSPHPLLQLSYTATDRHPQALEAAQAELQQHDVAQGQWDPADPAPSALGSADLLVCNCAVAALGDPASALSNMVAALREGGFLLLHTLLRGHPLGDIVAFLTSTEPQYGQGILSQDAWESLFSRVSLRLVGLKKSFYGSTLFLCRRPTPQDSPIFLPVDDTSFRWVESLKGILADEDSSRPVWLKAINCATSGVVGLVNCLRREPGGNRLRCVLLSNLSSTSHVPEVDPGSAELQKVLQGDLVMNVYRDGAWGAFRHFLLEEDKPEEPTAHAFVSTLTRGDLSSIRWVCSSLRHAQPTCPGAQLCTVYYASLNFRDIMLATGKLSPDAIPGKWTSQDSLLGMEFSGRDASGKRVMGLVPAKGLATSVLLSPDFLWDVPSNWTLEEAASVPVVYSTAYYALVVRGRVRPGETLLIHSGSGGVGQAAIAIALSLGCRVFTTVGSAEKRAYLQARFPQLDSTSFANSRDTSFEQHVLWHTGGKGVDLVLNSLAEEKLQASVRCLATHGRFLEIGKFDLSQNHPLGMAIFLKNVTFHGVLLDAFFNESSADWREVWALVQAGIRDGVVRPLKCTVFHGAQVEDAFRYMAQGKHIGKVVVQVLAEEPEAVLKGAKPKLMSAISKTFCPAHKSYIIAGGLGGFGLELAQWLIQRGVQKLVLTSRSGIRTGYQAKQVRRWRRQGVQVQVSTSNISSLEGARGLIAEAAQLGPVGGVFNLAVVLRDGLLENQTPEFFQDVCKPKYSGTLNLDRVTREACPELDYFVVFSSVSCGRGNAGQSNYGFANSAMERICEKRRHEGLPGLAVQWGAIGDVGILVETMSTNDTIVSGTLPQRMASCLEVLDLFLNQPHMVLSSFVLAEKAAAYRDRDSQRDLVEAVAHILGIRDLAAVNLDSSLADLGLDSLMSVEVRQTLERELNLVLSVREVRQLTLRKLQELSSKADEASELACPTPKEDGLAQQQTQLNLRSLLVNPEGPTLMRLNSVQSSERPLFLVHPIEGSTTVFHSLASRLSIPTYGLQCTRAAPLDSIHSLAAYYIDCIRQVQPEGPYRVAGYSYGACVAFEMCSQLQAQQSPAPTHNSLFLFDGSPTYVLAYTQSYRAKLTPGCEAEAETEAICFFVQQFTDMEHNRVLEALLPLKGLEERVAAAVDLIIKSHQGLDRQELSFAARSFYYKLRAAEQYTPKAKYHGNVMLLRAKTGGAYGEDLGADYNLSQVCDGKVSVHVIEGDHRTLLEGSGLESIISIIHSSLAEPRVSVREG

Compared with CC(=O)Nc1ccc(S(=O)(=O)Nc2ccc(C)c(C(=O)N3CCC(c4ccc(C#N)cc4)CC3)c2)cc1 [Example 48, N-[4-[[3-[4-(4-cyanophenyl)piperidine-1-carbonyl]-4-methyl-phenyl]sulfamoyl]phenyl]acetamide], CC(=O)Nc1ccc(S(=O)(=O)Nc2cc(C(=O)N3CCC(c4ccc(C#N)cc4)CC3)ccc2C)cc1 [Example 22, N-[4-[[5-[4-(4-cyanophenyl)piperidine-1-carbonyl]-2-methyl-phenyl]sulfamoyl]phenyl]acetamide] is higher in inhibition at 100 µM: 84% for the first, 95% for the second.

First: Cc1ccc(C(=O)N2CCC(c3ccc(F)cc3)CC2)cc1NS(C)(=O)=O [Example 213, N-[5-[4-(4-fluorophenyl)piperidine-1-carbonyl]-2-methylphenyl]methanesulfonamide]
Second: Cc1ccc(C(=O)N2CCC(c3ccc(CO)cc3)CC2)cc1NS(C)(=O)=O [Example 165, N-[5-[4-[4-(hydroxymethyl)phenyl]piperidine-1-carbonyl]-2-methylphenyl]methanesulfonamide]
The inhibition at 100 µM of the first is lower: 71% for the first, 76% for the second.

Compared with CC(=O)NCCCS(=O)(=O)Nc1cc(C(=O)N2CCC(c3ccc(C#N)cc3)CC2)ccc1C [Example 136, N-[3-[[5-[4-(4-cyanophenyl)piperidine-1-carbonyl]-2-methyl-phenyl]sulfamoyl]propyl]acetamide], Cc1ccc(C(=O)N2CCC(c3ccc(C#N)cc3)CC2)cc1NS(=O)(=O)CCCNS(=O)(=O)C(C)C [Example 131, N-[5-[4-(4-cyanophenyl)piperidine-1-carbonyl]-2-methyl-phenyl]-3-(propan-2-ylsulfonylamino)propane-1-sulfonamide] is lower in inhibition at 100 µM: 94% for the first, 91% for the second.

Going from Cc1ccc(C(=O)N2CCC(c3ccc(C(F)(F)F)cc3)CC2)cc1NS(=O)(=O)C1CCS(=O)(=O)C1 (stereo not shown) [Example 177, N-[2-methyl-5-[4-[4-(trifluoromethyl)phenyl]piperidine-1-carbonyl]phenyl]-1,1-dioxothiolane-3-sulfonamide] to Cc1ccc(NS(=O)(=O)C2CCS(=O)(=O)C2)cc1C(=O)N1CCC(c2ccc(C#N)cc2)CC1 (stereo not shown) [Example 69, N-[3-[4-(4-cyanophenyl)piperidine-1-carbonyl]-4-methyl-phenyl]-1,1-dioxo-thiolane-3-sulfonamide], the inhibition at 100 µM falls from 91% to 82%.

First: COc1ccccc1S(=O)(=O)Nc1ccc(C)c(C(=O)N2CCC(c3ccc(C#N)cc3)CC2)c1 [Example 50, N-[3-[4-(4-cyanophenyl)piperidine-1-carbonyl]-4-methyl-phenyl]-2-methoxy-benzenesulfonamide]
Second: Cc1ccc(NS(=O)(=O)c2ccccc2C#N)cc1C(=O)N1CCC(c2ccc(C#N)cc2)CC1 [Example 46, 2-cyano-N-[3-[4-(4-cyanophenyl)piperidine-1-carbonyl]-4-methyl-phenyl]benzenesulfonamide]
The inhibition at 100 µM of the first is higher: 87% for the first, 79% for the second.

Compared with Cc1ccc(NS(=O)(=O)c2ccc3c(c2)CC(=O)N3)cc1C(=O)N1CCC(c2ccc(C#N)cc2)CC1 [Example 53, N-[3-[4-(4-cyanophenyl)piperidine-1-carbonyl]-4-methyl-phenyl]-2-oxo-1,3-dihydroindole-5-sulfonamide], Cc1ccc(NS(=O)(=O)CC(F)(F)F)cc1C(=O)N1CCC(c2ccc(C#N)cc2)CC1 [Example 55, N-[3-[4-(4-cyanophenyl)piperidine-1-carbonyl]-4-methyl-phenyl]-2,2,2-trifluoro-ethanesulfonamide] is lower in inhibition at 100 µM: 84% for the first, 79% for the second.

First: Cc1ccc(C(=O)N2CCC(c3ccc(C#N)cc3)CC2)cc1NS(=O)(=O)c1ccccc1C(N)=O [Example 113, 2-[[5-[4-(4-cyanophenyl)piperidine-1-carbonyl]-2-methyl-phenyl]sulfamoyl]benzamide]
Second: Cc1ccc(C(=O)N2CCC(c3ccc(C#N)cc3)CC2)cc1NS(=O)(=O)c1ccccc1C(=O)NC(C)C [Example 208, 2-[[5-[4-(4-cyanophenyl)piperidine-1-carbonyl]-2-methylphenyl]sulfamoyl]-N-propan-2-ylbenzamide]
The inhibition at 100 µM of the first is higher: 77% for the first, 75% for the second.

Compared with Cc1ccc(C(=O)N2CCC(c3ccc(-c4ncon4)cc3)CC2)cc1NS(C)(=O)=O [Example 171, N-[2-methyl-5-[4-[4-(1,2,4-oxadiazol-3-yl)phenyl]piperidine-1-carbonyl]phenyl]methanesulfonamide], Cc1ccc(C(=O)N2CCC(c3ccc([S+](C)[O-])cc3)CC2)cc1NS(C)(=O)=O (stereo not shown) [Example 182, N-[2-methyl-5-[4-(4-methylsulfinylphenyl)piperidine-1-carbonyl]phenyl]methanesulfonamide] is lower in inhibition at 100 µM: 85% for the first, 80% for the second.

Compared with Cc1ccc(C(=O)N2CCC(c3ccc(C#N)cc3)CC2)cc1NS(=O)(=O)c1ccc(NC(C)C)nc1 [Example 99, N-[5-[4-(4-cyanophenyl)piperidine-1-carbonyl]-2-methyl-phenyl]-6-(propan-2-ylamino)pyridine-3-sulfonamide], Cc1ccc(C(=O)N2CCC(c3ccc(C#N)cc3)CC2)cc1NS(=O)(=O)c1ccccc1 [Example 10, N-[5-[4-(4-cyanophenyl)piperidine-1-carbonyl]-2-methyl-phenyl]benzenesulfonamide] is lower in inhibition at 100 µM: 92% for the first, 78% for the second.

Compared with Cc1ccc(C(=O)N2CCC(c3ccc(C#N)cc3)CC2)cc1NS(=O)(=O)CCCN1C(=O)c2ccccc2C1=O [Example 134, N-[5-[4-(4-cyanophenyl)piperidine-1-carbonyl]-2-methyl-phenyl]-3-(1,3-dioxoisoindol-2-yl)propane-1-sulfonamide], Cc1ccc(C(=O)N2CCC(c3ccc(C#N)cc3)CC2)cc1NS(=O)(=O)c1ccccc1C#N [Example 20, 2-cyano-N-[5-[4-(4-cyanophenyl)piperidine-1-carbonyl]-2-methyl-phenyl]benzenesulfonamide] is lower in inhibition at 100 µM: 97% for the first, 85% for the second.

First: CSc1ccc(C(=O)N2CCC(c3ccc(C#N)cc3)CC2)cc1NS(=O)(=O)Cc1ccccc1 [Example 160, N-[5-[4-(4-cyanophenyl)piperidine-1-carbonyl]-2-methylsulfanylphenyl]-1-phenylmethanesulfonamide]
Second: Cc1ccc(C(=O)N2CCC(c3ccc(S(C)(=O)=O)cc3)CC2)cc1NS(=O)(=O)Cc1ccccc1 [Example 193, N-[2-methyl-5-[4-(4-methylsulfonylphenyl)piperidine-1-carbonyl]phenyl]-1-phenyl-methanesulfonamide]
The inhibition at 100 µM of the first is higher: 89% for the first, 70% for the second.

Compared with Cc1ccc(C(=O)N2CCC(c3ccc(C(=O)NC4CC4)cc3)CC2)cc1NS(C)(=O)=O [Example 184, N-cyclopropyl-4-[1-(3-methanesulfonamido-4-methylbenzoyl)piperidin-4-yl]benzamide], Cc1ccc(C(=O)N2CCC(c3ccc(CNS(C)(=O)=O)cc3)CC2)cc1NS(C)(=O)=O [Example 163, N-[[4-[1-(3-methanesulfonamido-4-methylbenzoyl)piperidin-4-yl]phenyl]methyl]methanesulfonamide] is higher in inhibition at 100 µM: 84% for the first, 85% for the second.

First: Cc1ccc(C(=O)N2CCC(c3ccc(C#N)cc3)CC2)cc1NS(=O)(=O)C(F)(F)F [Example 209, N-[5-[4-(4-cyanophenyl)piperidine-1-carbonyl]-2-methylphenyl]-1,1,1-trifluoromethane-sulfonamide]
Second: Cc1ccc(C(=O)N2CCC(c3ccc(C#N)cc3)CC2)cc1NS(=O)(=O)C(C)C [Example 128, N-[5-[4-(4-cyanophenyl)piperidine-1-carbonyl]-2-methyl-phenyl]propane-2-sulfonamide]
The inhibition at 100 µM of the first is lower: 76% for the first, 96% for the second.

Compared with Cc1ccc(NS(=O)(=O)C2CCCCC2)cc1C(=O)N1CCC(c2ccc(C#N)cc2)CC1 [Example 42, N-[3-[4-(4-cyanophenyl)piperidine-1-carbonyl]-4-methyl-phenyl]cyclohexanesulfonamide], Cc1ccc(C(=O)N2CCC(c3ccc(CCC(=O)O)cc3)CC2)cc1NS(=O)(=O)C1CCCCC1 [Example 244, 3-[4-[1-[3-(cyclohexylsulfonylamino)-4-methylbenzoyl]piperidin-4-yl]phenyl]propanoic acid] is higher in inhibition at 100 µM: 90% for the first, 92.3% for the second.

First: Cc1ccc(C(=O)N2CCC(c3ccc(SC(F)(F)F)cc3)CC2)cc1NS(C)(=O)=O [Example 232, N-[2-methyl-5-[4-[4-(trifluoromethylsulfanyl)phenyl]piperidine-1-carbonyl]phenyl]methanesulfonamide]
Second: Cc1ccc(C(=O)N2CCC(c3ccc(C#N)cc3)CC2)cc1NS(=O)(=O)c1cccc(C#N)c1 [Example 21, 3-cyano-N-[5-[4-(4-cyanophenyl)piperidine-1-carbonyl]-2-methyl-phenyl]benzenesulfonamide]
The inhibition at 100 µM of the first is lower: 88.9% for the first, 90% for the second.

Same assay, conditions: compounds excluded from the claims by proviso

Cc1ccc(C(=O)N2CCC(c3ccc(C#N)cc3C)CC2)cc1NS(C)(=O)=O [N-[5-[4-(4-cyano-2-methylphenyl)piperidine-1-carbonyl]-2-methylphenyl]methanesulfonamide] was tested, and the “IC50s in the range of about 0.001 μM to about 30 μM” value (shortened to “IC50s in the range”) was “do not have IC50s in the range of about 0.001 μM to about 30 μM”.
For Cc1ccc(C(=O)N2CCC(O)(c3cccc(C(F)(F)F)c3)CC2)cc1NS(C)(=O)=O [N-[5-[4-hydroxy-4-[3-(trifluoromethyl)phenyl]piperidine-1-carbonyl]-2-methylphenyl]methanesulfonamide], the “IC50s in the range” value was “do not have IC50s in the range of about 0.001 μM to about 30 μM”.
CS(=O)(=O)Nc1ccc(F)c(C(=O)N2CCC(c3ccc(C#N)cc3)CC2)c1 [N-[3-[4-(4-cyanophenyl)piperidine-1-carbonyl]-4-fluorophenyl]methanesulfonamide] was tested, and the “IC50s in the range” value was “do not have IC50s in the range of about 0.001 μM to about 30 μM”.
For Cc1ccc(C(=O)N2CCC(O)(c3ccccc3)CC2)cc1NS(C)(=O)=O [N-[5-(4-hydroxy-4-phenylpiperidine-1-carbonyl)-2-methylphenyl]methanesulfonamide], the “IC50s in the range” value was “do not have IC50s in the range of about 0.001 μM to about 30 μM”.
